Where two headings read alike, the source gives them in different places.
How the values were obtained:
[1] = molecular target: T1, α2 B adrenergic receptor (rat kidney cortex membranes) (Rattus norvegicus, UniProt P19328); assay: Alpha2 B (rat kidney) receptor binding assay
T1 construct: Membrane suspensions were prepared from human cerebral cortex (HCC), HT-29 cells (HT) and rat kidney cortex (RtKC); from tissue; host or cells: rat kidney cortex membranes
T1 sequence (P19328 1-453): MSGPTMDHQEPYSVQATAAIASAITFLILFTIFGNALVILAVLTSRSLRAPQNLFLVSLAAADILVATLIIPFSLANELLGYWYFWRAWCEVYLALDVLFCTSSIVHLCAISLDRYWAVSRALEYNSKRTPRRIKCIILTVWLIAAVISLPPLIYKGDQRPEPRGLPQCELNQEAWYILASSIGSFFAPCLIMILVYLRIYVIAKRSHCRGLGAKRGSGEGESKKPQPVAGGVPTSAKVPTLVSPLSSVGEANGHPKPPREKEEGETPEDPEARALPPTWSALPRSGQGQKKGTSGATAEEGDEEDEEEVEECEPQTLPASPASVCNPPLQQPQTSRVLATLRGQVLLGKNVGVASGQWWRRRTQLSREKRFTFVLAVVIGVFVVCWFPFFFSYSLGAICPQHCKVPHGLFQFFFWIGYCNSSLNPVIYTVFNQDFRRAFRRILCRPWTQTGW
Description: (§1) The present compound or compounds may be included in a medication composition together with one or more other components to provide a medication composition which can be effectively administered. Such other components, e.g., carriers, anti-oxidants, bulking agents and the like, may be chosen from those materials which are conventional and well known in the art, e.g., as being included in medication compositions with α2 agonists. Whereas the effective dose of the compounds of the present compositions will depend on the nature of the host mammal and the specific diesease or condition treated it is anticipated that an effective daily dose of the compounds is in the range of 1 microgramm--10 mg per kg/body weight of the host. The ability of the compounds within the present invention to bind strongly and selectively to α2 adrenergic receptors in preference over α1 adrenergic receptors was confirmed by the following assay procedures which are generally recognized in the art to provide pertinent information with respect to the adrenergic activity of the compounds assayed: alpha1 (human brain) assay, alpha2 A (HT-29 cells) assay, and alpha2 B (rat kidney) assay. A description of these assay procedures is as follows.
(§2) Membrane preparation: Membrane suspensions were prepared from human cerebral cortex (HCC), HT-29 cells (HT) and rat kidney cortex (RtKC), as applicable. Tissues were homogenized in iced-cold buffer [250 mM sucrose, 5 mM tris, pH 7.4 (RtKC), or 50 mM Tris-HCl, 5 mM EDTA, pH 7.4 (HCC, HT)] with a Polytron homogenizer for 30 secs at setting #7, and centrifuged for 10 minutes at 300×g at 4° C. The supernatant was diluted 1:2 with 50 mM Tris-HCl buffer, pH 7.4 (RkCC, HCC) or pH 8.0 (HT) then centrifuged at 49,000×g for 15-20 minutes. The pellet fraction was washed 3 times (resuspended in Tris-HCl buffer and centrifuged for 15-20 minutes at 49,000×g). The pellet was then stored at -80° C. until the binding assay. Binding studies: The radioligands [^3 H] rauwolscine (specific activity 80 Ci/mmol) and [^3 H] prazosin (specific activity 77 Ci/mmol) were obtained from New England Nuclear, Boston, Mass. Frozen membrane pellet was resuspended in glycine glycine buffer, pH 7.6. Membrane protein homogenate (150-300 μg) was incubated with radioligand under the following conditions: 22° C., 30 minutes (HCC, HT), 0° C., 120 minutes (RtKC), in a final volume of 500 μl. At the end of the incubation period, the samples were filtered through glass fiber filters (Whatman GF/B) in a 96-well cell harvester and rapidly washed four times with 4 mls of iced-cold 50 mM Tris-HCl buffer. The filters were then oven dried and transferred to scintillation vials containing 5 mls of Beckman's Ready Protein^R scintillation cocktail for counting. Non-specific binding was defined by 10 μM phentolamine. Protein concentrations were determined with a protein assay kit from Bio Rad. Binding isotherms, equilibrium dissociation and affinity constants were analyzed and determined by the non-linear least squares curve fitting program AccuFit Competition/Saturation by Beckman.
(§3) As it will be recognized by those skilled in the art from the forogoing descriptions, the described assays are radioligand assays which measure the binding of the test compound to the respective α1 or α2 receptor. […]

[2] = molecular target: α1 adrenergic receptor (human cerebral cortex membranes); assay: Alpha1 (human brain) receptor binding assay; conditions: 22° C., 30 minutes, [3H] radioligand
Description: as §1
as §2, with “Membrane protein homogenate (150-300 μg) was incubated with radioligand under the following conditions: 22° C., 30 minutes (HCC, HT), 0° C., 120 minutes (RtKC), in a final volume of 500 μl. At the end of the incubation period, the samples were filtered through glass fiber filters (Whatman GF/B) in a 96-well cell harvester and rapidly washed four times with 4 mls of iced-cold 50 mM Tris-HCl buffer.” left out, “Non-specific binding was defined by 10 μM phentolamine.” left out, “Beckman. […]” for “Beckman.”

[3] = molecular target: T2, α2 A adrenergic receptor (HT-29 cells) (Homo sapiens, UniProt P08913); assay: Alpha2 A (HT-29 cells) receptor binding assay
T2 construct: Membrane suspensions were prepared from human cerebral cortex (HCC), HT-29 cells (HT) and rat kidney cortex (RtKC); endogenous in cells; host or cells: HT-29 cells
Description: as §1, §2, §3

T2 sequence (P08913 whole entry): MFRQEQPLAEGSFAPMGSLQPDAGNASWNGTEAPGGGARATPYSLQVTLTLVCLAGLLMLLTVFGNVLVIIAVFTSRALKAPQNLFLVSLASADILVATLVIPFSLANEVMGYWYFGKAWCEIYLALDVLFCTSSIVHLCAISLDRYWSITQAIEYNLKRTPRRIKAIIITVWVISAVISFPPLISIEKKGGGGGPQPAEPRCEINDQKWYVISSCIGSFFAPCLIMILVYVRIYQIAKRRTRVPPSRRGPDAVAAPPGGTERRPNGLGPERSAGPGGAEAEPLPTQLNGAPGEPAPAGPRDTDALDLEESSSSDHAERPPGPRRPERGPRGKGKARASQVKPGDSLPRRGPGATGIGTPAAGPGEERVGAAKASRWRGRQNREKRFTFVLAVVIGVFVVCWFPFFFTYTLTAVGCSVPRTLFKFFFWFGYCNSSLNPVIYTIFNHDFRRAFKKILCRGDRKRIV

SMILES	Ki [1]	Ki [2]	Ki [3]	Ki ([1]; rat kidney cortex membranes, 0° C., 120 minutes, [3H] radioligand, read-out: α2 B Ki)
Cc1cccc(NC2=NCCO2)c1C [Compound 1, 2-[2,3-Dimethylphenylamino)-oxazoline]	8.5 nM	1210 nM	5.1 nM	–
Cc1ccccc1NC1=NCCO1 [Compound 1a]	–	7400 nM	35.7 nM	208 nM
c1cc2c(c(NC3=NCCO3)c1)CCCC2 [Compound 2, 2-(5,6,7,8-tetrahydronaphthylamino)-oxazoline]	6.2 nM	–	2.2 nM	–
Cc1cccc(N=C2NCCN2)c1C [Compound 3, 2-(2,3-Dimethylphenylimino)-imidazolidine]	1.5 nM	434 nM	5.8 nM	–
Cc1ccccc1N=C1NCCN1 [Compound 3a, 2-(2-methylphenylimino)-imidazolidine]	25.3 nM	2170 nM	7.5 nM	–

From patent publication US5708015A, “Method for using pharmaceutical compositions containing 2-(2-alkyphenyl-amino)-thiazolines as adrenergic agents” (Allergan, priority 1996, dated 1998)
